Measurements published in paper PMC7827406, “Structure–Activity Relationship (SAR) Study of Spautin-1 to Entail the Discovery of Novel NEK4 Inhibitors” (International Journal of Molecular Sciences, 2021).
Read-outs that look alike come from different tables or passages of the source.

Key:
Assay in all cases: biochemical
Set-up in all cases: Eurofins KinaseProfiler full panel at Km ATP, residual kinase activity (%) relative to DMSO
AMPKα2(h) = molecular target: T1, AMPKα2(h) (Homo sapiens, UniProt P54646)
T1 construct: gene PRKAA2
How it was run: (§1)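 Two 10 µM single-concentration screens were run: a competition-binding screen, in which DNA-tagged kinase bound to immobilized ligands was quantified by qPCR, and a radiometric activity panel at Km ATP. Each is expressed as residual kinase activity (%).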

MELK(h) = MELK(h) (Homo sapiens, UniProt Q14680)
How it was run: as §1

PRK2(h) = molecular target: T2, PRK2(h) (Homo sapiens, UniProt Q16513)
T2 construct: gene PKN2
How it was run: as §1

ROCK-I(h) = molecular target: T3, ROCK-I(h) (Homo sapiens, UniProt Q13464)
T3 construct: gene ROCK1
How it was run: as §1

SAPK4(h) = molecular target: T4, SAPK4(h) (Homo sapiens, UniProt O15264)
T4 construct: gene MAPK13
T4 sequence (O15264 1-365): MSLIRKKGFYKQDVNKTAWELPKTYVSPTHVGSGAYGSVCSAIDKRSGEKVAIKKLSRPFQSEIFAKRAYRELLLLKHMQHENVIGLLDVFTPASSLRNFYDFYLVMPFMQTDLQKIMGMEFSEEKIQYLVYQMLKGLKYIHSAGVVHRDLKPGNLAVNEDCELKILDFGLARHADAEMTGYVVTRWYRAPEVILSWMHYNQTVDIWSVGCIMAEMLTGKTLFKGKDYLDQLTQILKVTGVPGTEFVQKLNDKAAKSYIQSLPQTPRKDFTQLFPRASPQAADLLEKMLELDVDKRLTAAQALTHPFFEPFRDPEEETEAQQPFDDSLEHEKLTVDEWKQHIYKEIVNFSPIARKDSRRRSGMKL
How it was run: as §1

TGFBR2(h) = TGFBR2(h) (Homo sapiens, UniProt P37173)
How it was run: as §1

ULK2(h) = molecular target: T5, ULK2(h) (Homo sapiens, UniProt Q8IYT8)
T5 sequence (Q8IYT8 1-1036): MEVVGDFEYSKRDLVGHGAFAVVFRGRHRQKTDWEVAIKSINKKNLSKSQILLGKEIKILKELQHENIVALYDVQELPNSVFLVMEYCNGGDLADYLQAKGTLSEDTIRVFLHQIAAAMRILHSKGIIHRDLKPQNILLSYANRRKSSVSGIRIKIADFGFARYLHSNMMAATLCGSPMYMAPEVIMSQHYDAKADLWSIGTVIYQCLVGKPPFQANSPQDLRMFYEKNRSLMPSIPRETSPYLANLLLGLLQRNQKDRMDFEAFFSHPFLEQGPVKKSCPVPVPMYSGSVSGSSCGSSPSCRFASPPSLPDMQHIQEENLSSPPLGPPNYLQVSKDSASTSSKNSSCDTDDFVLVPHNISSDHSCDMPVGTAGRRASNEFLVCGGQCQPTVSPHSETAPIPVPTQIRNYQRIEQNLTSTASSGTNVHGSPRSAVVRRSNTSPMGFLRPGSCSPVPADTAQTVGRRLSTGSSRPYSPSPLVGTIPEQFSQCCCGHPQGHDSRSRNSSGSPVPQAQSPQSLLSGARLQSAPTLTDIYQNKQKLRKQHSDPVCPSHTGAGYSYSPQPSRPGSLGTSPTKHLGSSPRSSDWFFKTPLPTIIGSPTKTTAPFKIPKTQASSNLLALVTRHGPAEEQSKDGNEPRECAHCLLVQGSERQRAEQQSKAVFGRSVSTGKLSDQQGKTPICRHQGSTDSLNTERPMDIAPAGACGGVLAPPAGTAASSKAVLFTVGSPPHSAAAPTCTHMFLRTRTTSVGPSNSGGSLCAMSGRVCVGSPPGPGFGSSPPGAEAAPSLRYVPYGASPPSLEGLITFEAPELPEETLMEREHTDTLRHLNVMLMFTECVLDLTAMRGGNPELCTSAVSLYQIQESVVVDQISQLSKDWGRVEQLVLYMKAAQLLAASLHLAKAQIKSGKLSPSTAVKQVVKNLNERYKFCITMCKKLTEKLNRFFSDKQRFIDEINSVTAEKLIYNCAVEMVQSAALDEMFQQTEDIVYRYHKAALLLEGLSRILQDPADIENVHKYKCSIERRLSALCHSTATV
How it was run: as §1

[1] = read-out: Residual activity (%) Spautin-1 5aa
[2] = read-out: Residual activity (%) 5as
[3] = read-out: Residual activity (%) 5at
[4] = read-out: Residual activity (%) 5ay

T3 sequence (Q13464 whole entry): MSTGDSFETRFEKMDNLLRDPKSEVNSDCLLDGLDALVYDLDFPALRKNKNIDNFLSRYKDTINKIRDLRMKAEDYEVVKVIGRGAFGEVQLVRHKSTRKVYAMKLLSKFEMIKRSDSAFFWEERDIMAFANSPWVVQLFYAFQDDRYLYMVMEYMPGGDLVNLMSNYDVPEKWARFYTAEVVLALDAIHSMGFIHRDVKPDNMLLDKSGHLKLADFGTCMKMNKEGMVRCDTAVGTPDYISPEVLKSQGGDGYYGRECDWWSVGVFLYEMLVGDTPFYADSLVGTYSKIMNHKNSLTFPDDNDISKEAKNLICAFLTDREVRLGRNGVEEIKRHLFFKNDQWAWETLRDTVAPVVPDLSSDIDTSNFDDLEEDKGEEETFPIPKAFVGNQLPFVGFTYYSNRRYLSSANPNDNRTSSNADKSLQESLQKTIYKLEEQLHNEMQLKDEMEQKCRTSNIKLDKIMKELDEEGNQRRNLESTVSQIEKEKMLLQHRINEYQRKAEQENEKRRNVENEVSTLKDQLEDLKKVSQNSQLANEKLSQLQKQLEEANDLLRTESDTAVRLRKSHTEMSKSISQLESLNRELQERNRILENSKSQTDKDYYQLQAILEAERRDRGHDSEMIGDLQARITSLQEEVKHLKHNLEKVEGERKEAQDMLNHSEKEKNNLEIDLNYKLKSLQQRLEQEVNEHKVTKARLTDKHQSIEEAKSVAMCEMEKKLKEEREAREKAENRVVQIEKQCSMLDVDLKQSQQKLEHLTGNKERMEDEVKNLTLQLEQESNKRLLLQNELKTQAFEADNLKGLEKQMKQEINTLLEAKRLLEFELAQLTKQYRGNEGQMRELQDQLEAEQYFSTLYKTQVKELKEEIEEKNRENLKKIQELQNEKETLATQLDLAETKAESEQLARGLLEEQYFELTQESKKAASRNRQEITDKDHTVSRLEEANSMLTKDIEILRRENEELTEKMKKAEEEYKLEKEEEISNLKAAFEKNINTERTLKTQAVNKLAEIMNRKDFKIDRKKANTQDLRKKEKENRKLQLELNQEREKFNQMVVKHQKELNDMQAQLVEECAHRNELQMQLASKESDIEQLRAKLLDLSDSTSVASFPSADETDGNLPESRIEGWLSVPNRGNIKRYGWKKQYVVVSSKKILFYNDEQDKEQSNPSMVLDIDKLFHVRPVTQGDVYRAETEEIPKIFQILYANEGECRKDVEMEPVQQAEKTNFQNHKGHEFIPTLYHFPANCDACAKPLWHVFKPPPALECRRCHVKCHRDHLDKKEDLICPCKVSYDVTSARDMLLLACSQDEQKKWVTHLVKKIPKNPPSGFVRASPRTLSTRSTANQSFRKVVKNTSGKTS
T2 sequence (Q16513 whole entry): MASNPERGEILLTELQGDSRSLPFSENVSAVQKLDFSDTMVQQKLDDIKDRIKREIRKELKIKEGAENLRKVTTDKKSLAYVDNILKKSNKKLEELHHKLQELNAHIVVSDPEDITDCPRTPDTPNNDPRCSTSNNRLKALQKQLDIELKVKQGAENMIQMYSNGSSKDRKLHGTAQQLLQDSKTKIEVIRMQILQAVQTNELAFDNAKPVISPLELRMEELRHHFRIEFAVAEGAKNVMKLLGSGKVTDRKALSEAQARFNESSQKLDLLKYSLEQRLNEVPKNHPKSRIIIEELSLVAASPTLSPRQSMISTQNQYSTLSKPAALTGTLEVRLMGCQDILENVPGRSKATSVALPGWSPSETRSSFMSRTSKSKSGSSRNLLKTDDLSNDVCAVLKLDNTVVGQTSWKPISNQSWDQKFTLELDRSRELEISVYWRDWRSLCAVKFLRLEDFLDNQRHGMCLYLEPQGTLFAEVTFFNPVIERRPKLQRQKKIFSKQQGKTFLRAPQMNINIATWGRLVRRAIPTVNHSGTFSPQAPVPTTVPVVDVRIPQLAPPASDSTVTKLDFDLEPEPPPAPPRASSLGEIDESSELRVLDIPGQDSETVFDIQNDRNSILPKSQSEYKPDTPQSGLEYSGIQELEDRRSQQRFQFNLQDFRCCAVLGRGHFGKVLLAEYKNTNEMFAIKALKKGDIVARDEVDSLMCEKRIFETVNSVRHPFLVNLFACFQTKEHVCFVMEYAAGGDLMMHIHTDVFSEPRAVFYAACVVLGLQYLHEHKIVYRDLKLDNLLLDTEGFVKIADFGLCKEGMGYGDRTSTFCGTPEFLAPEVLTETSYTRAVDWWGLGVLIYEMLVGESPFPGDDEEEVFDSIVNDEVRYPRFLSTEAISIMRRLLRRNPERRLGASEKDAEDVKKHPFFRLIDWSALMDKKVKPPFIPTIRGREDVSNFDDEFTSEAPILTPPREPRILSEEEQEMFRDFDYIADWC
T1 sequence (P54646 whole entry): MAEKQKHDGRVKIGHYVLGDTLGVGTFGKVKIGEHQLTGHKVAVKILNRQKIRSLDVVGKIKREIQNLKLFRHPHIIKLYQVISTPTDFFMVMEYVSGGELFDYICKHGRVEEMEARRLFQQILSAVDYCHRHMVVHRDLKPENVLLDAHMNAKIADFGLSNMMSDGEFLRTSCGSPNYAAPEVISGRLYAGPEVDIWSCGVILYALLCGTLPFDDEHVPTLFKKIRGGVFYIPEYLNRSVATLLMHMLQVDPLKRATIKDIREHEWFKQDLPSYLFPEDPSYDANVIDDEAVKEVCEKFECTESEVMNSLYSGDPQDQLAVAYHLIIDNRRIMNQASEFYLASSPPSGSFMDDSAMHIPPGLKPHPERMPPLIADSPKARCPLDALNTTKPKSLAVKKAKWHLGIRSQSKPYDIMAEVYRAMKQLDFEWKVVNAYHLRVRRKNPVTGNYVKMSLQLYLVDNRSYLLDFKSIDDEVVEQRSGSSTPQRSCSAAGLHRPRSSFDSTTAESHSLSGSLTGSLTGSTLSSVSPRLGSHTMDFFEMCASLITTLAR
T1 sequence (P54619 whole entry partner): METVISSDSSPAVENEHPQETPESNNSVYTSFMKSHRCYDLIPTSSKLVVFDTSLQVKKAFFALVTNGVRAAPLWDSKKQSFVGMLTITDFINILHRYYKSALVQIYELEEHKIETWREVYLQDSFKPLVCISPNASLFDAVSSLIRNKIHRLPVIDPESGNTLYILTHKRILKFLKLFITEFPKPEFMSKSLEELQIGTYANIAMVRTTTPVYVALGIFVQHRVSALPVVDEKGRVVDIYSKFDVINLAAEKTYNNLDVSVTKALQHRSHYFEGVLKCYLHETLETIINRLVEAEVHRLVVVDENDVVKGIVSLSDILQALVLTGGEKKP
T1 sequence (Q9Y478 whole entry partner): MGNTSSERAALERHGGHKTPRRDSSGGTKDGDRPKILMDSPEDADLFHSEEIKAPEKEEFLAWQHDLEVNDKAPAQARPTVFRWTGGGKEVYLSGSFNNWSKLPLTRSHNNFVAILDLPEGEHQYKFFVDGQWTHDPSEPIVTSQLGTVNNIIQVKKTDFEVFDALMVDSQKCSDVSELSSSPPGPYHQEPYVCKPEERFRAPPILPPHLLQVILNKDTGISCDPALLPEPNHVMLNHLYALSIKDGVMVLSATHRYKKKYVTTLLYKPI
MELK(h), sequence (Q14680 whole entry): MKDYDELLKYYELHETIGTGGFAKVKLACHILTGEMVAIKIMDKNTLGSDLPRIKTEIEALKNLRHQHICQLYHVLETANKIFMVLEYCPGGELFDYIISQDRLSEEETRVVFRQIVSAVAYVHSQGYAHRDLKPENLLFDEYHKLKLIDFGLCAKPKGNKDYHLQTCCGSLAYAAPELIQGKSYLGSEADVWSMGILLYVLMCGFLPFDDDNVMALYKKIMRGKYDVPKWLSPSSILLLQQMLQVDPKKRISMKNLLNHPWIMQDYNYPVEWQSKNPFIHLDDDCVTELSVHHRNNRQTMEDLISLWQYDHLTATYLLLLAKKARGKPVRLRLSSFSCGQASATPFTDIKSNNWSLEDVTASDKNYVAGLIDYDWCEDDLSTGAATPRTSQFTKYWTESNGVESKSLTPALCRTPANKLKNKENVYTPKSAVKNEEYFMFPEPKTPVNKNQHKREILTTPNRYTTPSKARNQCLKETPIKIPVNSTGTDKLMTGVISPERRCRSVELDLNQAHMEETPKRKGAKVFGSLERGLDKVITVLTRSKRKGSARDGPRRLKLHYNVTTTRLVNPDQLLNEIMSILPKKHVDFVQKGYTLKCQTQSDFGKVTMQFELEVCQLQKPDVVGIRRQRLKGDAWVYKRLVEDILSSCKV
TGFBR2(h), sequence (P37173 whole entry): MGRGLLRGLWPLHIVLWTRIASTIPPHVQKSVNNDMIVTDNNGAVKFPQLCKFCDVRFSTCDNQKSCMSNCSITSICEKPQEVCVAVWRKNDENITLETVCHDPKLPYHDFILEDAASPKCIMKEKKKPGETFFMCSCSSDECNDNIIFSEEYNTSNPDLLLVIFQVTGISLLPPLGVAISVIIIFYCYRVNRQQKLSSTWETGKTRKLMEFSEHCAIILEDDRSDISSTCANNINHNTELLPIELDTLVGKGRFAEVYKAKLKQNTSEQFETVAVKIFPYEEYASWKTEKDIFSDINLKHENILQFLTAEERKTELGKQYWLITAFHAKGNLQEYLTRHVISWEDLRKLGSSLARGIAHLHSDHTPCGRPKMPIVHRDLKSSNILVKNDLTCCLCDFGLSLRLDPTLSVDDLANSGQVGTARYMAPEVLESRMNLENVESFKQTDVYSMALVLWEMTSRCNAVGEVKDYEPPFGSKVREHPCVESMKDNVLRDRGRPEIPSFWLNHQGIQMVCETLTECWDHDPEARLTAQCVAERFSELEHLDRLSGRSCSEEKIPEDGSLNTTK

Fc1ccc(CNc2ncnc3ccc(F)cc23)cc1 [5aa, 6-Fluoro-N-(4-fluorobenzyl)-4-Quinazolinamine]
remaining activity at 10 µM (AMPKα2(h); [1]): 108% | remaining activity at 10 µM (MELK(h); [1]): 86% | remaining activity at 10 µM (PRK2(h); [1]): 108% | remaining activity at 10 µM (ROCK-I(h); [1]): 91% | remaining activity at 10 µM (SAPK4(h); [1]): 97% | remaining activity at 10 µM (TGFBR2(h); [1]): 97% | remaining activity at 10 µM (ULK2(h); [1]): 101%

Fc1ccc(CCNc2ncnc3ccc(F)cc23)cc1 [5as, 6-Fluoro-N-[2-(4-Fluorophenyl)Ethyl]-4-Quinazolinamine]
remaining activity at 10 µM (AMPKα2(h); [2]): 108% | remaining activity at 10 µM (MELK(h); [2]): 90% | remaining activity at 10 µM (PRK2(h); [2]): 104% | remaining activity at 10 µM (ROCK-I(h); [2]): 98% | remaining activity at 10 µM (SAPK4(h); [2]): 105% | remaining activity at 10 µM (TGFBR2(h); [2]): 91% | remaining activity at 10 µM (ULK2(h); [2]): 93%

Fc1ccc2ncnc(NCCc3ccc(Cl)cc3)c2c1 [5at, N-[2-(4-Chlorophenyl)Ethyl]-6-Fluoro-4-Quinazolinamine]
remaining activity at 10 µM (AMPKα2(h); [3]): 109% | remaining activity at 10 µM (MELK(h); [3]): 73% | remaining activity at 10 µM (PRK2(h); [3]): 96% | remaining activity at 10 µM (ROCK-I(h); [3]): 93% | remaining activity at 10 µM (SAPK4(h); [3]): 92% | remaining activity at 10 µM (TGFBR2(h); [3]): 93% | remaining activity at 10 µM (ULK2(h); [3]): 94%

COc1ccc2ncnc(Nc3cccc(F)c3)c2c1 [5ay, N-(3-Fluorophenyl)-6-Methoxy-4-Quinazolinamine]
remaining activity at 10 µM (AMPKα2(h); [4]): 97% | remaining activity at 10 µM (MELK(h); [4]): 95% | remaining activity at 10 µM (PRK2(h); [4]): 95% | remaining activity at 10 µM (ROCK-I(h); [4]): 96% | remaining activity at 10 µM (SAPK4(h); [4]): 105% | remaining activity at 10 µM (TGFBR2(h); [4]): 96% | remaining activity at 10 µM (ULK2(h); [4]): 97%
